Experimental data reported in ChEMBL document CHEMBL1157446, “Cubyl amides: novel P2X7 receptor antagonists” (Bioorg Med Chem Lett, 2008).
Activity calls are given as the source filed them. No cut-off for these calls is given here.

Assays:
[1] = biological target: T1, P2X purinoceptor 7 (Rattus norvegicus) (UniProt Q64663); assay: Antagonist activity at P2X7R in BzATP-stimulated rat spinal cord assessed as decrease in fluorescent propidium iodide dye uptake at 1 uM; assay type: functional
T1 sequence (whole entry): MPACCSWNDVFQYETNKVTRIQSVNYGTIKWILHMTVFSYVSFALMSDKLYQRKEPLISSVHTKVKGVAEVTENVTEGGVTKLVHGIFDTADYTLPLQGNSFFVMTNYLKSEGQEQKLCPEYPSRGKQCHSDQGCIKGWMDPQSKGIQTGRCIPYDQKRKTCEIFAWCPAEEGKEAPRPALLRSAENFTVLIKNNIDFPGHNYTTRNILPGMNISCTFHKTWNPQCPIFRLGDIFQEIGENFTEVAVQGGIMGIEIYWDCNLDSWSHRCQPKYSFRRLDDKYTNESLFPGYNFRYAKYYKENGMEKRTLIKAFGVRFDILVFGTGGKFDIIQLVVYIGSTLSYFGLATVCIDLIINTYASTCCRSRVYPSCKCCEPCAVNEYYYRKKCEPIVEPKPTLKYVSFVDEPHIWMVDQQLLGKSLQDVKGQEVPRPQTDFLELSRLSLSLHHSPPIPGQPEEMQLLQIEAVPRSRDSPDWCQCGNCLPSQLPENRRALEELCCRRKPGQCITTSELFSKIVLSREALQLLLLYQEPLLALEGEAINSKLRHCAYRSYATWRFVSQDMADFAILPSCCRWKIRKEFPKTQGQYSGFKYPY

[2] = biological target: P2Y purinoceptor 2 (Homo sapiens) (UniProt P41231); assay: Activity at P2Y2 receptor expressed in HEK293 cells at 10 uM to 1 nM; assay type: cell-based
P2Y purinoceptor 2 (Homo sapiens), sequence (P41231 whole entry): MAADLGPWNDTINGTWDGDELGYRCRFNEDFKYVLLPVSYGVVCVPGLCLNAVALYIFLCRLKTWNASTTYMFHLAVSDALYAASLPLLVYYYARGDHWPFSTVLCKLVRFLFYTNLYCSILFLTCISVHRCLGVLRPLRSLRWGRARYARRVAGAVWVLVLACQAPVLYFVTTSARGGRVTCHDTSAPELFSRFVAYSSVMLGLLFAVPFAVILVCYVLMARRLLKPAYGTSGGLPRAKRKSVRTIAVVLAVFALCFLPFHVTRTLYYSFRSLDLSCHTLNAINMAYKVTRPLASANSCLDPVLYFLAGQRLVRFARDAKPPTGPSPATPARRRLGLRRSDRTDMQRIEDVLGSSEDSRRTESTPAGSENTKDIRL

[3] = biological target: P2Y purinoceptor 4 (Homo sapiens) (UniProt P51582); assay: Agonist activity at P2Y4 receptor expressed in HEK293 cells at 10 uM to 1 nM; assay type: functional, cell-based
P2Y purinoceptor 4 (Homo sapiens), sequence (P51582 whole entry): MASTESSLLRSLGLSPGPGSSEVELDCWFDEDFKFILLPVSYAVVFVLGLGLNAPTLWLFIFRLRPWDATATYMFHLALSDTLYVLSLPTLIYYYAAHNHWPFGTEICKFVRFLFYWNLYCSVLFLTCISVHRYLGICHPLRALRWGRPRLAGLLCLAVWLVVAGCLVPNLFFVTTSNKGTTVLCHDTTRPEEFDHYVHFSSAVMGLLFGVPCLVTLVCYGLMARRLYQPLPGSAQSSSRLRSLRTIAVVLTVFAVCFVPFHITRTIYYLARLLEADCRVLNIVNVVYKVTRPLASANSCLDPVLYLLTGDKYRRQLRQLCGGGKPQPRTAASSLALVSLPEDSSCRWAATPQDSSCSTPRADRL

[4] = biological target: P2Y purinoceptor 1 (Homo sapiens) (UniProt P47900); assay: Activity at P2Y1 expressed in HEK293 cells at 10 uM to 1 nM; assay type: cell-based
P2Y purinoceptor 1 (Homo sapiens), sequence (P47900 whole entry): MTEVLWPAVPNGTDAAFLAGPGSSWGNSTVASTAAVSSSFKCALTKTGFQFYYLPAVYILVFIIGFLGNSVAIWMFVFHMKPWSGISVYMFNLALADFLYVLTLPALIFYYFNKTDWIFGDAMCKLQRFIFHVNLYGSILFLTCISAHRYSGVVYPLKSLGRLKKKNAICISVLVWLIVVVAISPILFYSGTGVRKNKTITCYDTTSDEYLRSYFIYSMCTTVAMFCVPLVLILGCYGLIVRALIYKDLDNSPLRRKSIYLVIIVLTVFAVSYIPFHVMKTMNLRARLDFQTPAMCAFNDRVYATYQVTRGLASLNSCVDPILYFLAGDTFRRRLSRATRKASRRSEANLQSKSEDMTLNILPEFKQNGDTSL

Compound | Activity [1] | Activity [2] | Activity [3] | Activity [4]
O=C(NCC12CC3CC(CC(C3)C1)C2)c1ccccc1F | Active | inactive | inactive | inactive
O=C(NCC12C3C4C5C3C1C5C42)c1ccc(F)cc1 (centres undefined) | Active | inactive | inactive | inactive
O=C(NCC12C3C4C5C3C1C5C42)c1ccccc1F (centres undefined) | Active | inactive | inactive | inactive
COc1ccc(Cl)c(C(=O)NCC23C4C5C6C4C2C6C53)c1 (centres undefined) | Active | inactive | inactive | inactive
COc1ccc(Cl)c(C(=O)NCC23CC4CC(CC(C4)C2)C3)c1 | Active | inactive | inactive | inactive
O=C(NCC12CC3CC(CC(C3)C1)C2)c1ccc(F)cc1 | Active | inactive | inactive | inactive
